Key:
[1] = Inhibition of Hepatitis C virus genotype 1a H77 replicon NS5A transfected in human HuH7 cells assessed as decrease in replication of viral replicon in presence of 40% human plasma after 4 days by luciferase reporter gene assay; type: cell-based, Hepatitis C virus (isolate H77); conditions: Huh-7, Plasma, 96 h
[2] = Inhibition of Hepatitis C virus genotype 2a replicon NS5A transfected in human HuH7 cells assessed as decrease in replication of viral replicon after 4 days by luciferase reporter gene assay; type: cell-based, Hepatitis C virus subtype 2a; conditions: Huh-7, 96 h
[3] = Inhibition of Hepatitis C virus genotype 1a H77 replicon NS5A Q30R mutant transfected in human HuH7 cells assessed as decrease in replication of viral replicon after 4 days by luciferase reporter gene assay; type: cell-based, Hepatitis C virus (isolate H77); conditions: Huh-7, 96 h
[4] = Half life in CD1 mouse at 3 mg/kg, po after 0.25 to 24 hrs; type: ADME, organism-based; conditions: in vivo
[5] = Inhibition of Hepatitis C virus genotype 1a H77 replicon NS5A transfected in human HuH7 cells assessed as decrease in replication of viral replicon after 4 days by luciferase reporter gene assay; type: cell-based, Hepatitis C virus (isolate H77); conditions: Huh-7, 96 h
[6] = AUC in CD1 mouse at 15 mg/kg, po after 0.25 to 24 hrs; type: ADME, organism-based; design: time lower 0.25 hr, dose 15 mg/kg, time upper 24 hr, route oral; conditions: in vivo
[7] = tested on: Hepatitis C virus (isolate H77); assay: Resistance ratio of EC50 for Hepatitis C virus genotype 1a H77 replicon NS5A Y93C mutant to EC50 for Hepatitis C virus genotype 1a H77 replicon NS5A
[8] = AUC in beagle dog at 2.5 mg/kg, po administered via gavage after 0.25 to 24 hrs; type: ADME, organism-based, Canis lupus familiaris; design: dose 2.5 mg/kg, time 0.25-24 hr, route oral; conditions: in vivo
[9] = Cmax in Sprague-Dawley rat at 3 mg/kg, po administered via gavage after 0.25 to 24 hrs; type: ADME, organism-based; design: dose 3 mg/kg, route oral; conditions: in vivo
[10] = Inhibition of Hepatitis C virus genotype 1b Con1 replicon NS5A transfected in human HuH7 cells assessed as decrease in replication of viral replicon after 4 days by luciferase reporter gene assay; type: cell-based, Hepatitis C virus (isolate Con1); conditions: Huh-7, 96 h
[11] = Cmax in beagle dog at 2.5 mg/kg, po administered via gavage after 0.25 to 24 hrs; type: ADME, organism-based, Canis lupus familiaris; design: dose 2.5 mg/kg, route oral; conditions: in vivo
[12] = Inhibition of Hepatitis C virus genotype 2b replicon NS5A transfected in human HuH7 cells assessed as decrease in replication of viral replicon after 4 days by luciferase reporter gene assay; type: cell-based, Hepatitis C virus subtype 2b; conditions: Huh-7, 96 h
[13] = Inhibition of Hepatitis C virus genotype 1a H77 replicon NS5A M28T mutant transfected in human HuH7 cells assessed as decrease in replication of viral replicon after 4 days by luciferase reporter gene assay; type: cell-based, Hepatitis C virus (isolate H77); conditions: Huh-7, 96 h
[14] = Inhibition of Hepatitis C virus genotype 4a replicon NS5A transfected in human HuH7 cells assessed as decrease in replication of viral replicon after 4 days by luciferase reporter gene assay; type: cell-based, Hepatitis C virus subtype 4a; conditions: Huh-7, 96 h
[15] = tested on: Hepatitis C virus (isolate H77); assay: Resistance ratio of EC50 for Hepatitis C virus genotype 1a H77 replicon NS5A Y93H mutant to EC50 for Hepatitis C virus genotype 1a H77 replicon NS5A
[16] = Half life in CD1 mouse at 15 mg/kg, po after 0.25 to 24 hrs; type: ADME, organism-based; conditions: in vivo
[17] = Cmax in CD1 mouse at 15 mg/kg, po after 0.25 to 24 hrs; type: ADME, organism-based; design: dose 15 mg/kg, route oral; conditions: in vivo
[18] = Inhibition of Hepatitis C virus genotype 6a replicon NS5A transfected in human HuH7 cells assessed as decrease in replication of viral replicon after 4 days by luciferase reporter gene assay; type: cell-based, Hepatitis C virus subtype 6a; conditions: Huh-7, 96 h
[19] = tested on: Hepatitis C virus (isolate H77); assay: Resistance ratio of EC50 for Hepatitis C virus genotype 1a H77 replicon NS5A M28T mutant to EC50 for Hepatitis C virus genotype 1a H77 replicon NS5A
[20] = AUC in CD1 mouse at 3 mg/kg, po after 0.25 to 24 hrs; type: ADME, organism-based; design: time upper 24 hr, dose 3 mg/kg, time lower 0.25 hr, route oral; conditions: in vivo
[21] = AUC in Sprague-Dawley rat at 3 mg/kg, po administered via gavage after 0.25 to 24 hrs; type: ADME, organism-based; design: time upper 24 hr, dose 3 mg/kg, time lower 0.25 hr, route oral; conditions: in vivo
[22] = Inhibition of Hepatitis C virus genotype 1b Con1 replicon NS5A transfected in human HuH7 cells assessed as decrease in replication of viral replicon in presence of 40% human plasma after 4 days by luciferase reporter gene assay; type: cell-based, Hepatitis C virus (isolate Con1); conditions: Huh-7, Plasma, 96 h
[23] = Half life in beagle dog at 2.5 mg/kg, po administered via gavage after 0.25 to 24 hrs; type: ADME, organism-based, Canis lupus familiaris; conditions: in vivo
[24] = Cmax in CD1 mouse at 3 mg/kg, po after 0.25 to 24 hrs; type: ADME, organism-based; design: dose 3 mg/kg, route oral; conditions: in vivo
[25] = tested on: Hepatitis C virus (isolate H77); assay: Resistance ratio of EC50 for Hepatitis C virus genotype 1a H77 replicon NS5A Q30R mutant to EC50 for Hepatitis C virus genotype 1a H77 replicon NS5A
[26] = Inhibition of Hepatitis C virus genotype 3a replicon NS5A transfected in human HuH7 cells assessed as decrease in replication of viral replicon after 4 days by luciferase reporter gene assay; type: cell-based, Hepatitis C virus subtype 3a; conditions: Huh-7, 96 h
[27] = Cmax in CD1 mouse at 30 mg/kg, po after 0.25 to 24 hrs; type: ADME, organism-based; design: dose 30 mg/kg, route oral; conditions: in vivo
[28] = AUC in CD1 mouse at 30 mg/kg, po after 0.25 to 24 hrs; type: ADME, organism-based; design: time lower 0.25 hr, dose 30 mg/kg, time upper 24 hr, route oral; conditions: in vivo
[29] = Half life in Sprague-Dawley rat at 3 mg/kg, po administered via gavage after 0.25 to 24 hrs; type: ADME, organism-based; conditions: in vivo
[30] = Half life in CD1 mouse at 30 mg/kg, po after 0.25 to 24 hrs; type: ADME, organism-based; conditions: in vivo

| Structure (SMILES) | EC50 [1] | EC50 [2] | EC50 [3] | half-life [4] | EC50 [5] | Ratio EC50 [7] | AUC [8] | Cmax [9] | EC50 [10] | Cmax [11] | EC50 [12] | EC50 [14] | Ratio EC50 [15] | EC50 [18] | Ratio EC50 [19] | AUC [20] | AUC [21] | EC50 [22] | half-life [23] | EC50 [26] | other results |
| --- | --- | --- | --- | --- | --- | --- | --- | --- | --- | --- | --- | --- | --- | --- | --- | --- | --- | --- | --- | --- | --- |
| COC(=O)N[C@H](C(=O)N1CCC[C@H]1c1nc2cc([C@H]3CC[C@H](c4ccc5[nH]c([C@@H]6CCCN6C(=O)[C@@H](NC(=O)OC)C(C)C)nc5c4)N3c3cc(F)c(N4CCCCC4)c(F)c3)ccc2[nH]1)C(C)C | 154 pM | 13 pM | 25 pM | 3.9 h | 3 to 6 pM | 6 | 1230 ng·h/mL | 50 ng/mL | 6 pM | 200 ng/mL | 7 pM | 5 pM | 163 | 7 pM | 3 | 1800 ng·h/mL | 30 ng·h/mL | 261 pM | 2.8 h | 9 pM | AUC [6]: 9250 ng·h/mL; EC50 [13]: 10 pM; half-life [16]: 3.2 h; Cmax [17]: 930 ng/mL; Cmax [24]: 220 ng/mL; Ratio EC50 [25]: 8 |
| COC(=O)N[C@H](C(=O)N1CCC[C@H]1c1nc2c(C)c([C@H]3CC[C@H](c4ccc5[nH]c([C@@H]6CCCN6C(=O)[C@@H](NC(=O)OC)C(C)C)nc5c4C)N3c3ccc(C(C)(C)C)cc3)ccc2[nH]1)C(C)C | 520 pM | 594 pM |  |  | 10 pM |  |  |  | 10 pM |  | 25 pM | 5 pM |  | 132 pM |  |  |  | 557 pM |  | 20 pM |  |
| COC(=O)N[C@H](C(=O)N1CCC[C@H]1c1nc2c(Cl)c([C@H]3CC[C@H](c4ccc5[nH]c([C@@H]6CCCN6C(=O)[C@@H](NC(=O)OC)C(C)C)nc5c4Cl)N3c3ccc(C(C)(C)C)cc3)ccc2[nH]1)C(C)C | 1850 pM | 1830 pM |  |  | 34 pM |  |  |  | 13 pM |  | 38 pM | 10 pM |  | 590 pM |  |  |  | 731 pM |  | 37 pM |  |
| COC(=O)N[C@H](C(=O)N1CCC[C@H]1c1nc2cc([C@H]3CC[C@H](c4cc5nc([C@@H]6CCCN6C(=O)[C@@H](NC(=O)OC)C(C)C)[nH]c5cc4F)N3c3cc(F)c(N4CCCCC4)c(F)c3)c(F)cc2[nH]1)C(C)C | 96 pM | 12 pM | 8 pM | 6.1 h | 3 to 4 pM | 4 | 17200 ng·h/mL | 190 ng/mL | 7 pM | 1380 ng/mL | 4 pM | 7 pM | 27 | 7 pM | 2 | 4410 ng·h/mL | 2880 ng·h/mL | 153 pM | 5.5 h | 6 pM | Cmax [27]: 3390 ng/mL; AUC [28]: 48200 ng·h/mL; half-life [29]: 5.8 h; half-life [30]: 5.5 h; Cmax [24]: 370 ng/mL; Ratio EC50 [25]: 3 |
| COC(=O)N[C@H](C(=O)N1CCC[C@H]1c1nc2cc(-c3ccc(-c4cc5nc([C@@H]6CCCN6C(=O)[C@@H](NC(=O)OC)C(C)C)[nH]c5cc4C)cc3)c(C)cc2[nH]1)C(C)C |  | 9180 pM |  |  | 1470 pM |  |  |  | 8 pM |  | 148 pM | < 30 pM |  | 3240 pM |  |  |  |  |  | 4450 pM |  |
| COCc1c(-c2ccc(-c3ccc4[nH]c([C@@H]5CCCN5C(=O)[C@@H](NC(=O)OC)C(C)C)nc4c3COC)cc2)ccc2[nH]c([C@@H]3CCCN3C(=O)[C@@H](NC(=O)OC)C(C)C)nc12 |  | > 100000 pM |  |  | 1180 pM |  |  |  | 193 pM |  | 77500 pM | 1190 pM |  | > 100000 pM |  |  |  |  |  | 15500 pM |  |
